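Interpolation was linear, between the two tested concentrations surrounding the appropriate level; five concentrations were tested over 48 hours in 96-well plates. TGI: total growth inhibition.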
What was measured:
Assay in all cases: NCI-60 cell line screen, 48 h
EKVX NSCLC = tested on: EKVX NSCLC
OVCAR-3 ovarian = tested on: OVCAR-3 ovarian
U251 CNS = tested on: U251 CNS
SF-295 CNS = tested on: SF-295 CNS
SF-268 CNS = tested on: SF-268 CNS
HT29 colon = tested on: HT29 colon
RPMI-8226 leukemia = tested on: RPMI-8226 leukemia
TK-10 renal = tested on: TK-10 renal
NCI-H522 lung = tested on: NCI-H522 lung
UACC-62 melanoma = tested on: UACC-62 melanoma
A549 NSCLC = tested on: A549 NSCLC
NCI/ADR-RES ovarian = tested on: NCI/ADR-RES ovarian
HS 578T breast = tested on: HS 578T breast

Compound	TGI (EKVX NSCLC) [µM]	TGI (OVCAR-3 ovarian) [µM]	TGI (U251 CNS) [µM]	TGI (SF-295 CNS) [µM]	TGI (SF-268 CNS) [µM]	TGI (HT29 colon) [µM]	TGI (RPMI-8226 leukemia) [µM]	TGI (TK-10 renal) [µM]	TGI (NCI-H522 lung) [µM]	TGI (UACC-62 melanoma) [µM]	TGI (A549 NSCLC) [µM]	TGI (NCI/ADR-RES ovarian) [µM]	TGI (HS 578T breast) [µM]
CC(C)(C)S(=O)OC12CC3CC(CC(C3)C1)C2 (stereo not given)	> 100	> 100	> 100	> 100	> 100	> 100	> 100	> 100	> 100	> 100	> 100		
COP(=O)(OC)/C(=C\c1cn(C(c2ccccc2)(c2ccccc2)c2ccccc2)cn1)NC(C)=O	> 100	> 100	> 100	> 100	> 100	> 100		> 100	> 100	> 100	> 100	> 100	> 100
O=c1ccn(C2OC(CN(O)CCC3C(CO)OC(n4ccc(=O)[nH]c4=O)C3O)C(O)C2O)c(=O)[nH]1 (stereo not given)	> 100	> 100	> 100	> 100	> 100	> 100	> 100	> 100		> 100	> 100	> 100	> 100
CCc1cc2c(oc3cc(C)ccc32)c(=O)n1C	> 10	> 10	> 10	> 10	> 10	> 10		> 10	> 10		> 10		> 10
COc1ccc2c(c1)CCC(OS(=O)(=O)CC13CCC(CC1=O)C3(C)C)C2=O (stereo not given)	> 100	66.9	43.1		59.8		57.2	95.9	53.7	34.8	78		
C=CCn1c(-c2ccc(-c3cs/c(=N\N=O)n3CC=C)cc2)cs/c1=N\N=O	> 100	> 100	> 100	> 100	> 100	> 100		> 100	> 100	> 100	> 100	> 100	> 100
CC1=NN=C(N)NC1=CC(Sc1ccc(Cl)cc1)c1c(O)ccc2ccccc12 (stereo not given)	69		76.8	> 57.7	> 71.1	48.4	> 100	> 100	41.8	25.9	> 92.9	71.9	41.3
CN(C)Cc1cc(C(C)(C)C)cc(C2CCCCC2)c1O	24.1	28.3	27.4		32.5	13.5		29.1	37.2	29.8	26.5	44.4	33.9
N#Cc1sc2c(c1O)c(=O)n(-c1ccccc1)c(=S)n2-c1ccccc1		> 100	> 100	> 100	> 100	> 100	> 100	> 100	> 100	> 100	> 100		> 100
CC(=O)c1sc(=N)n(-c2c(C)cccc2C)c1C	> 100	> 100	> 100		> 100	> 100	> 100	> 100	> 100	> 100	> 100	> 100	> 100
O=C1NC2(CCN(CCCC3(c4ccc(F)cc4)OCCO3)CC2)Oc2ccccc21	> 100		> 100	> 100	> 100	> 100	> 100	> 100		> 100	> 100	> 100	
O=C(CCN1CCOCC1)C(=Cc1ccccc1)C(=O)CCN1CCOCC1	5.59	14.4	28.4	29.1	15.1	8.35	4.14		2.85	6.19	35.8	13.9	
C[N+](C)=c1nc(N2CCc3ccccc3C2)ss1		> 100	> 100		> 100		> 100	> 100	> 100	> 100	> 100		
c1ccc2cc3c(cc2c1)nc1ccccn13	> 100	> 100	> 100	> 100	> 100		> 100	> 100		> 100	> 100	> 100	> 100
CC#CC(O)(C(=O)OC1CC2CCC(C1)N2C)C1CCCC1 (stereo not given)	> 100	> 100	> 100	> 100	> 100	> 100	> 100	> 100		> 100	> 100	> 100	> 100
CCC(=O)C(C(C)/C=C/CCSc1ccccc1)C(O)CCCCCC(=O)OC (stereo not given)	> 100	> 100	> 100	> 100	> 100	> 100	> 100	> 100	> 100	> 100	> 100	> 100	
OC(C/C=N/Nc1ccccc1)(C(F)(F)Cl)C(F)(F)Cl	> 10	> 10	> 10	> 10	> 10	> 10		> 10	> 10	> 10	> 10	> 10	> 10
O=C1c2ccccc2-c2c1c(-c1cccc(Br)c1)nc1ccc3ccccc3c21	> 100	> 100	> 100	> 100	> 100	> 100	> 100			> 100	> 100	> 100	> 100
CC(=O)OCC(Br)C1(C)CCC(C(C)(C)Br)O1 (stereo not given)	> 100	> 100	> 100	> 100	> 100	> 100	> 100	> 100	86.7		> 100	> 100	> 100
CC(=O)NNc1nc(C)c(C(=O)NNC(=O)C(=O)Nc2c(C)cccc2C(C)(C)C)s1	> 100		> 100	> 100	> 100	> 100	> 100	> 100	57.1	> 100	> 100		

Compound	TGI (EKVX NSCLC) [µM]	TGI (OVCAR-3 ovarian) [µM]	TGI (U251 CNS) [µM]	TGI (SF-295 CNS) [µM]	TGI (SF-268 CNS) [µM]	TGI (HT29 colon) [µM]	TGI (RPMI-8226 leukemia) [µM]	TGI (TK-10 renal) [µM]	TGI (NCI-H522 lung) [µM]	TGI (UACC-62 melanoma) [µM]	TGI (A549 NSCLC) [µM]	TGI (NCI/ADR-RES ovarian) [µM]	TGI (HS 578T breast) [µM]
CCc1n[nH]c(=O)n1CCO	> 100	> 100	> 100	> 100		> 100	> 100	> 100		> 100	> 100	> 100	
Cc1nc2c(=O)n3c4c(cccc4c2o1)CCC3	> 100	> 100	> 100	> 100	> 100	> 100	> 100	> 100		> 100	> 100	> 100	> 100
N#CCCN(CCN(CCC#N)C(=O)Nc1ccccc1)C(=O)Nc1ccccc1	> 100		> 100	> 100	87.9	> 100	> 100	> 100	98.4	> 100	> 100	> 100	> 100
COc1cccc(-c2nc(-c3cnccn3)n(COCCO)n2)c1		> 100	> 100	> 100	> 100	> 100	> 100	> 100	> 100	> 100	> 100	> 100	
CC(=O)c1cc(C)n2c1CS[C@@H]2c1ccccc1	> 100	> 100	92.7	> 100	> 100	> 100	44	> 100	> 100		> 100	> 100	> 100
O=C(CC1C(=O)c2ccccc2C1=C1C(=O)c2ccccc2C1=O)c1ccccc1 (stereo not given)	> 100		> 100	> 100	> 100	> 100	> 100	> 100	97.3	> 100	> 100		
CCCCNC(=S)/N=C/c1c(O)c2ccccc2[nH]c1=O	> 10	> 10	> 10	> 10	> 10	> 10	> 10	> 10		> 10	> 10	> 10	
NCc1cc(O)c(O)c(O)c1	> 100	> 100	> 100	> 100	> 100	> 100	> 100	> 100	> 100	> 100	> 100		
CC(C)(C)OC(=O)N(CCCCNCc1ccc2ccccc2c1)CCCNCc1ccc2ccccc2c1	3.05		3.49		3.29	2.17		3.07	3.07	3.08	3.82	3.02	3.3
C=CCN1CN(c2ccccc2)C2(CCN(CCCC3(c4ccc(F)cc4)OCCO3)CC2)C1=O	40.1	27.7	29.4	33	38.5	20.4	34.2	33.5	36.7	34.5	42.9	28.2	
Cn1c2ccccc2c(=O)c2[nH]c3ccccc3c21	> 100	> 100	> 100	> 100	62.4	> 100	> 100	> 100	> 100	> 100	> 100	> 100	
CN(C)CC1CN=C(NC(=O)Nc2ccccc2)O1 (stereo not given)	> 100		> 100	> 100	> 100	> 100	> 100	> 100	> 100	> 100	> 100	> 100	> 100
COc1cc(C2C(Cl)C(=O)N2NC(=O)c2ccc(NC(C)=O)cc2OC)ccc1O (stereo not given)	29.2	53.5		> 100	61.5	34.1	13.4		23	36.2	> 100	> 100	
CC1(C)O[C@@H](CBr)C[C@H](C[C@H]2C[C@@H](O)C[C@@H](CCOCc3ccccc3)O2)O1	33	39.8	> 100	32.4	39.2		97	38.3	35.4	34.4	75.7	41.1	47.7
COc1ccc(NC2CC(C)N(C(=O)c3ccccc3)O2)cc1 (stereo not given)	> 10	> 10		> 10	> 10	> 10	> 10	> 10	> 10		> 10	> 10	> 10
N#Cc1nc(COCCOCc2ccc(F)cc2)oc1N	> 100	> 100	> 100	> 100	> 100	> 100	> 100	> 100	> 100	> 100	> 100	> 100	
CN(C)Cc1cc(N=Nc2ccc(Cl)cc2)ccc1OC(=O)c1ccccc1	25.9	32.3	29.4	28.7	59.9	27.5	40.7	29.8	26.5		13.6	45.4	46.9
C[C@]12CC[C@H](O)CC1=CC[C@@H]1C2CC[C@]2(C)Nc3c(cnn3-c3ccc(F)cc3)CC12 (stereo not given in full)	> 100	> 100	> 100	6.82	> 100	> 100		> 100	> 100	> 100	> 100	> 100	22.2
O=C(CSC1=NNC2(C(=O)N1)c1ccccc1-c1ccccc12)NC(=S)Nc1ccccc1	> 10			> 10	> 10	> 10	> 10	> 10	> 10	> 10	> 10	> 10	

Reference: PubChem BioAssay (NCI)
